Consider three compounds from PubChem BioAssay AID2060350 (Molecular Pharmacology Branch, DTP, NCI, 2025).

One may read the viability, T/C as the ratio of treated to control. In general, IC50 refers to the point on the concentration scale where inhibition reaches its midpoint.

The subject of the assay is PDC 521955-158-R6-J3 spheroids, viability. Description: Anticancer human tumor 521955-158-R6-J3-PDC patient-derived pancreatic carcinoma cell line growth inhibition [TAK]. To be noted: spheroids with HUVEC and MSC; for viability, T/C: stronger effect = lower value; for IC50: curve of compound. Put shortly:
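Tumor cells were grown as spheroids with HUVEC and hMSC (60:25:15) and treated with targeted agents combined with TAK-243 or ipatasertib. Drugs were tested in half-log steps down from near the clinical Cmax, or from 10 microM where Cmax was unknown.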

Molecules are shown by their SMILES. “And” between values parts separate entries of the source, which are not always exact repeats. Equal entries are not always repeated.
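Note: spheroids exposed to drugs for 7 days before readout.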
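Throughout, for viability, T/C: 100% = DMSO vehicle control viability.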

Turning to `Cc1nc(NC(=O)N2CCCC2C(N)=O)sc1-c1ccnc(C(C)(C)C(F)(F)F)c1` (stereo unspecified), the concentration for half-maximal inhibition (IC50) is greater than 10000 nM. The viability, T/C (compound 0.0316 µM) is 82.3% and 93.5%. In addition, for the setting “compound 0.1 µM”, the viability, T/C is 87.3% and 82%. Further, the viability, T/C (compound 0.316 µM) is 73.3% and 81.9%. Further, the viability, T/C (compound 1 µM) was 68.2% and 77.4%. Also, for the setting “compound 3.16 µM”, the viability, T/C is 72.5% and 67%. Under “compound 10 µM”, the viability, T/C is 58.3% and 54.9%.
For `CC(C)CC(NC(=O)C(Cc1ccccc1)NC(=O)c1cnccn1)B(O)O` (stereo unspecified), the IC50 is 7.56 nM and > 10 nM. In addition, the viability, T/C (compound 31.6 pM) is 101% and 120%. The viability, T/C (compound 0.0001 µM) is 97.6% and 107%. The viability, T/C (compound 0.000316 µM) is 91.6% and 103%. Further, the viability, T/C (compound 0.001 µM) is 108% and 93.6%. Moreover, the viability, T/C (compound 0.00316 µM) is 111% and 87.4%. Where the note is “compound 0.01 µM”, the viability, T/C was 33.2% and 102%.
With `CC(C)(C)c1nc(-c2cccc(NS(=O)(=O)c3c(F)cccc3F)c2F)c(-c2ccnc(N)n2)s1`, the half-inhibitory concentration (IC50) was greater than 10000 nM. Moreover, for the setting “compound 0.0316 µM”, the viability, T/C was 111% and 97.3%. In addition, the viability, T/C (compound 0.1 µM) was 121% and 111%. Besides, the viability, T/C (compound 0.316 µM) is 135% and 114%. For the same compound, the viability, T/C (compound 1 µM) was 116% and 111%. For the same compound, the viability, T/C (compound 3.16 µM) is 108% and 98.3%. Besides, for the setting “compound 10 µM”, the viability, T/C is 139% and 118%.
